# Assay results reported in patent US8069687B2, “Working media for refrigeration processes” (priority 2005, dated 2011).
# Like-named read-outs stand apart in the source and are kept apart here.
# What was measured:
# [1] = Absorption isotherm: partial pressure of 2,2,2-trifluoroethanol over sorbent material at 70° C.; type: physicochemical
# Description: Absorption isotherms result from the amount of a volatile component (here the refrigerant) which, at a predetermined temperature and at pressures which are generally lower than the vapor pressure of the pure refrigerant; dissolves, in an equilibrium state, in a very high-boiling or nonvolatile liquid (here the sorbent material). The pairs of values of concentration of the liquid binary mixture and the pressure of the volatile component over the liquid at a given temperature thereby give an absorption isotherm. […] In the absorption refrigerating machines considered here, a sorbent material shall absorb the refrigerant after its expansion and vaporization at a low pressure. An advantageous sorbent material, at a given pressure, takes up as much refrigerant as possible, whereupon the volume and the masses of the circulating streams minimize (or lower pressure for the same composition). This leads to the fact that the unit achieves a higher degree of efficiency and can be more advantageous with respect to its dimensions and also the amount of absorber used.
# The measurements were carried out at 70° C.
# [2] = Absorption isotherm: partial pressure of R134a over sorbent material at 20° C.; type: physicochemical
# Description: Absorption isotherms result from the amount of a volatile component (here the refrigerant) which, at a predetermined temperature and at pressures which are generally lower than the vapor pressure of the pure refrigerant; dissolves, in an equilibrium state, in a very high-boiling or nonvolatile liquid (here the sorbent material). The pairs of values of concentration of the liquid binary mixture and the pressure of the volatile component over the liquid at a given temperature thereby give an absorption isotherm. Such absorption isotherms of high-boiling or nonvolatile liquid substances can be measured using various dynamic or static experimental methods of which, here, by way of example reference is made to a dynamic, gravimetric method, as was presented by Sadowski G., Mokrushina L. V., Arlt, W., “Finite and infinite dilution activity coefficients in polycarbonate systems”, Fluid Phase Equilibria, 139 (1997) 391-493. In the absorption refrigerating machines considered here, a sorbent material shall absorb the refrigerant after its expansion and vaporization at a low pressure. An advantageous sorbent material, at a given pressure, takes up as much refrigerant as possible, whereupon the volume and the masses of the circulating streams minimize (or lower pressure for the same composition). This leads to the fact that the unit achieves a higher degree of efficiency and can be more advantageous with respect to its dimensions and also the amount of absorber used.
# The measurements were carried out at 20° C.
# [3] = as described by N. Bicak; cited from earlier work
# [4] = 25° C.; as described by N. Bicak; cited from earlier work
# [5] = depending on system temperature; prior art; cited from earlier work
# [6] = Description: If, as described in • W. Pennington; How to find accurate vapor pressures of lithium bromide water solutions; Refrig. Eng. 63 (May 1955) 57-61 or • D. A. Boryta, A. J. Maas, C. B. Grant; Vapor pressure-temperature-concentration relationship for system lithium bromide and water (40-70% lithium bromide); J. Chem. Eng. Data 20 (1975) 316-319 or • S. Iyoki, T. Uemura; Vapor pressure of the water-lithium bromide system and water-lithium bromide-zinc bromide-lithium chloride system at high temperatures; Int. […] In the prior art, the use of LiBr as absorbent and water as refrigerant is very widespread.
# (§1) If, as described in • W. Pennington; How to find accurate vapor pressures of lithium bromide water solutions; Refrig. Eng. 63 (May 1955) 57-61 or • D. A. Boryta, A. J. Maas, C. B. Grant; Vapor pressure-temperature-concentration relationship for system lithium bromide and water (40-70% lithium bromide); J. Chem. Eng. Data 20 (1975) 316-319 or • S. Iyoki, T. Uemura; Vapor pressure of the water-lithium bromide system and water-lithium bromide-zinc bromide-lithium chloride system at high temperatures; Int.
# as §1, with “Ethoxylated cocodiethanolammonium chloride is an ionic liquid which can be obtained under the name TEGO IL K5 from Degussa AG. If,” for “If,”
# as §1, with “The ionic liquid diethylpolypropoxymethylammonium chloride can be obtained from Degussa AG under the name TEGO IL P9. If,” for “If,”
# as §1
# [7] = Crystallization of the sorbent in water; type: physicochemical; conditions: T≧20° C.; concentrations greater than 65 mass % ionic liquid in water
# [8] = in vivo; cited from earlier work
# [9] = mass fraction of ionic liquid 0.20
# [10] = mass fraction of ionic liquid 0.40
# [11] = mass fraction of ionic liquid 0.60
# [12] = mass fraction of ionic liquid 0.80
# [13] = mass fraction of the sorbent material 0.20
# [14] = mass fraction of the sorbent material 0.40
# [15] = mass fraction of the sorbent material 0.60
# [16] = mass fraction of the sorbent material 0.80
# [17] = 20° C., 80 mass % ionic liquid and 20 mass % water
# [18] = 20° C., 80 mass % ionic liquid and 20 mass % water, pure water 23.37 mbar
# [19] = 40° C., 92 mass % ionic liquid and 8 mass % water
Compound,"Partial pressure of 2,2,2-trifluoroethanol [1, 9] [kPa]","Partial pressure of 2,2,2-trifluoroethanol [1, 10] [kPa]","Partial pressure of 2,2,2-trifluoroethanol [1, 11] [kPa]","Partial pressure of 2,2,2-trifluoroethanol [1, 12] [kPa]","Partial pressure of R134a [2, 13] [kPa]",crystallization in water [7],other results
"1,3-dimethylimidazolium dimethyl phosphate [MMIM MMPO4]",39.7,10.7,3.2,0.8,439,–,"Partial pressure of R134a [2, 14]: 303 kPa; Partial pressure of R134a [2, 15]: 164 kPa; Partial pressure of R134a [2, 16]: 57 kPa"
NCCO.O=CO [2-Hydroxyethylammonium formate],–,–,–,–,–,–,"thermal stability, upper temperature [3]: up to 150 °C; vapor pressure [4]: 2.2×10^−2 torr; stability to hydrolysis (Stability to hydrolysis): comparatively poor stability to hydrolysis"
"[Br-].[Li+] [LiBr, lithium bromide]",–,–,–,–,–,–,LiBr concentration above which LiBr crystallizes in water [5]: above 60 mass %
CC(=O)[O-].CCn1cc[n+](C)c1 [EMIM OAc],24.7,3.7,0.8,0.2,360,–,"Partial pressure of R134a [2, 14]: 175 kPa; Partial pressure of R134a [2, 15]: 66 kPa; Partial pressure of R134a [2, 16]: 17 kPa"
CCn1cc[n+](C)c1 [EMIM EtSO4],–,–,–,–,360,does not crystallize out,"water partial pressure [6, 17]: 15 mbar; factor by which the vapor pressure of pure water was lowered [6, 18]: 1.56; LD50 [8]: > 2000 mg/kg"
"CCCCn1cc[n+](C)c1.[Br-] [BMIM Br, 1-butyl-3-methylimidazolium bromide, reference compound]",42.2,15.1,5.6,1.6,–,–,–
CCn1cc[n+](C)c1.[Cl-] [EMIM Cl],19.3,4.0,1.0,0.2,327,–,"Partial pressure of R134a [2, 14]: 135 kPa; Partial pressure of R134a [2, 15]: 37 kPa; Partial pressure of R134a [2, 16]: 7 kPa"
"CCCC[n+]1ccc(C)cc1.[Cl-] [MBP Cl, 1-butyl-4-methylpyridinium chloride]",25.2,5.0,1.3,0.3,–,–,–
diethylpolypropoxymethylammonium chloride [TEGO IL P9],–,–,–,–,–,does not crystallize out,"water partial pressure ([6]; 30° C., 94 mass % ionic liquid and 6 mass % water): 6 mbar; factor by which the vapor pressure of pure water was decreased ([6]; 30° C., 94 mass % ionic liquid and 6 mass % water, pure water 42.41 mbar): 7.07"
ethoxylated cocodiethanolammonium chloride [TEGO IL K5],–,–,–,–,–,does not crystallize out,"water partial pressure [6, 17]: 17 mbar; factor by which the vapor pressure of pure water was lowered [6, 18]: 1.38"
CCn1cc[n+](C)c1.CS(=O)(=O)[O-] [EMIM MeSO3],39.7,13.5,4.6,1.2,–,does not crystallize out,"water partial pressure ([6]; 30° C., 87 mass % ionic liquid and 13 mass % water): 9 mbar; factor by which the vapor pressure of pure water was lowered ([6]; 30° C., 87 mass % ionic liquid and 13 mass % water, pure water 42.41 mbar): 4.7"
CCn1cc[n+](C)c1.[OH-] [EMIM OH],5.0,<0.1,<0.1,<0.1,345,–,"Partial pressure of R134a [2, 14]: 112 kPa; Partial pressure of R134a [2, 15]: 20 kPa; Partial pressure of R134a [2, 16]: 3 kPa"
"CCCCn1cc[n+](C)c1.F[B-](F)(F)F [BMIM BF4, 1-butyl-3-methylimidazolium tetrafluoroborate, reference compound]",70.2,53.0,35.9,18.0,–,–,–
"C[N+](C)(CCO)CCO.[Cl-] [Salt A, bis(2-hydroxyethyl)dimethylammonium chloride]",33.0,11.1,3.6,0.7,–,–,–
"CS(=O)(=O)[O-].C[N+](C)(CCO)CCO [Salt B, bis(2-hydroxyethyl)dimethylammonium methylsulfonate]",42.0,–,–,1.6,–,does not crystallize out,"water partial pressure [6, 17]: 14 mbar; pressure reduction factor compared with the vapor pressure of pure water [6, 19]: 5.3; water partial pressure [6, 19]: approximately 13.9 mbar"
